Data reported in paper PMC5979965, “Structure-based discovery of mPGES-1 inhibitors suitable for preclinical testing in wild-type mice as a new generation of anti-inflammatory drugs” (Scientific Reports, 2018).
Where two headings read alike, the source gives them in different places.

How the values were obtained:
[1] = target: T1, mouse mPGES-1 (Mus musculus, UniProt Q9JM51); assay: Activity assay using recombinant mouse mPGES-1 (PGE2 enzyme immunoassay); type: biochemical
T1 construct: made in house; host or cells: FreeStyle 293-F cells, mPGES-1/pcDNA3 construct, crude microsomal preparation
T1 sequence (Q9JM51 1-153): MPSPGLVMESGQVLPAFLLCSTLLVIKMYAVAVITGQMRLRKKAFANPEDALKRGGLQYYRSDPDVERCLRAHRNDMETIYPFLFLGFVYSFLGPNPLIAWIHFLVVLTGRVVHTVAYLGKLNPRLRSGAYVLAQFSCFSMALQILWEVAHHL
Excerpt: Our protocols for the protein preparation and in vitro activity assays were the same as described in previous reports[39],[41]–[43]. […] For the structure-activity relationship (SAR), we first investigated the impact of substitution on the central benzene ring on the inhibitory potency. […] The central benzene rings of 4i was originated from salicylaldehydes with chlorine substituted on 5-position. […] The length of the alkoxy side chain was also inspected in compounds 4b and 6.
(§1) 3. In vitro experimental tests
(§2) Preparation of mPGES-1 enzymes. Cloning of mPGES-1 and the protein preparation were described in our previous reports.15 Briefly, FreeStyle Max Expression system was used to express wild -type human and mouse mPGES-1 enzymes separately. FreeStyle 293-F cells were cultured following manufacturer’s manual in FreeStyle 293 expression medium on orbit rotate shaker in 8% CO 2 incubator at 37 °C. Cells were transfected with 1.5 µg/mL of mPGES-1/pcDNA3 construct using FreeStyle Max reagent at a cell density of 1 × 106 for 2 days. Transfected cells were collected, washed, and sonicated in TSES buffer (15 mM Tris-HCl, pH 8.0 plus 0.25 M sucrose, 0.1 mM EDTA and 1 mM DTT) on ice. The broken cells were first centrifuged at 12,500 × g for 10 min. The supernatant was further centrifuged at 105,000 × g for 1 hr at 4 °C. The pellet was washed and homogenized in PBS buffer. The crude microsomal mPGES -1 preparations were aliquoted and stored at -80 °C before use.
(§3) PGH2 (stored in dry ice). […] After 1
(§4) Following the formation of […]

[2] = target: T2, human mPGES-1 (Homo sapiens, UniProt O14684); assay: Activity assay using recombinant human mPGES-1 (PGE2 enzyme immunoassay); type: biochemical
T2 construct: made in house; host or cells: FreeStyle 293-F cells, mPGES-1/pcDNA3 construct, crude microsomal preparation
T2 sequence (O14684 1-152): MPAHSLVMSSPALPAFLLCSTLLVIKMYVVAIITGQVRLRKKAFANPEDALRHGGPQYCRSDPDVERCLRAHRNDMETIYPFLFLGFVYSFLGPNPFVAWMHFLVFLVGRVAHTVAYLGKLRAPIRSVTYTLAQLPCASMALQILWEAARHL
Experimental: Our protocols for the protein preparation and in vitro activity assays were the same as described in previous reports[39],[41]–[43]. […] For the structure-activity relationship (SAR), we first investigated the impact of substitution on the central benzene ring on the inhibitory potency. […] The length of the alkoxy side chain was also inspected in compounds 4b and 6.
Purity was determined by HPLC (Waters 1525 Binary HPLC pump, Waters 2487 Dual λ Absorbance Detector, and Waters 717plus Autosampler, Milford, MA) at λ of […] using acetonitrile and 0.1% […]
TFA (70:30) as mobile phase.
as §1, §2, §3, §4

[3] = system: mice; settings: mouse, in vivo, po, 50 mg/kg
Experimental: (§5) Animals. Wild-type CD-1 mice (28-35 g) were ordered from Harlan (Indianapolis, IN), and housed
(§6) for a week prior to the experimental studies. All animals were allowed ad libitum access to food and water
(§7) and maintained on a 12 h light/12 h dark cycle, with the lights on at 8:00 am at a room temperature of 21–
(§8) 22 °C. Experiments were performed in a same colony room in accordance with the Guide for the Care and
(§9) Use of Laboratory Animals as adopted and promulgated by the National Institutes of Health. The animal
(§10) protocol was approved by the IACUC (Institutional Animal Care and Use Committee) at the University
(§11) Preparation of pictures during acute toxicity testing. Mice were divided into three groups and
(§12) treated with oral administration of a single dose of vehicle (Wesson vegetable oil, Memphis, TN), 4b (250
(§13) mg/mL in Wesson vegetable oil at the dose of 1 g/kg), and celecoxib (12.5 mg/mL in Wesson vegetable

[4] = target: T1, mouse mPGES-1; settings: cited from earlier work
[5] = system: rat enzyme (mPGES-1); settings: cited from earlier work
[6] = system: mice; assay: Acute toxicity/safety testing in mice after PO administration
Experimental: as §5, §6, §7, §8, §9, §10, §11, §12, §13

[7] = system: PGE2 levels in kidney; assay: Wild-type mice based air-pouch model of inflammation (carrageenan), PGE2 by ELISA; settings: for PGE2 levels in mice (kidney): 24 hours, vs vehicle
[8] = IC50 (nM) against mPGES-1, Mouse mPGES-1, Mean ± SD of measurements in triplicate

Question: For `CC(C)c1ccc2c(c1)c(SC(C)(C)C)c(CC(C)(C)C(=O)O)n2Cc1ccc(Cl)cc1` [MK-886, reference compound], which “inhibition of mouse mPGES-1” value ([1]; concentration not given) is on record?
Answer: without significant inhibition

Question: For `O=C1NC(=O)C(=Cc2cc(Cl)ccc2OCCCCC2CCCCC2)C(=O)N1` [Compound 4i], which IC50 [2] is on record?
Answer: 87 ± 27 nM

Question: And the IC50 [1, 8]?
Answer: 19100 ± 3490 nM

Question: What about the IC50 ([1]; IC50 against the mouse enzyme) of the same molecule?
Answer: > 10000 nM

Question: Which results are given for `Cc1ccc(-c2cc(C(F)(F)F)nn2-c2ccc(S(N)(=O)=O)cc2)cc1` [celecoxib]?
Answer: bleeding spots on the inner side of stomach samples [3]: at least one bleeding spot; finding at gastric mucosa [3]: bleeding ulcer was observed; toxicity in mice [3]: very toxic for stomach and other issues of mice

Question: Which IC50 [2] does the source give for `O=C1NC(=O)C(=Cc2ccc(OCCCC3CCCCC3)c(Cl)c2)C(=O)N1` [Compound 6] here?
Answer: 69 ± 16 nM

Question: What about the IC50 [1, 8] of the same molecule?
Answer: 292 ± 47 nM

Question: What does the source list for `N#Cc1cccc(C#N)c1-c1nc2c3ccc(Cl)cc3c3ccccc3c2[nH]1` [MF63, 2-(6-chloro-1H-phenanthro[9,10-d]imidazol-2-yl)-isophthalonitrile]?
Answer: inhibition against mouse mPGES-1 at 10 µM ([1]; 10 µM): no significant inhibition; activity against the mouse enzyme, previously reported [4]: without significant activity; activity against the rat enzyme, previously reported [5]: without significant activity

Question: With `O=C1NC(=O)C(=Cc2ccc(OCCCCC3CCCCC3)c(Cl)c2)C(=O)N1` [Compound 4b] as the molecule, how does the IC50 [2] read?
Answer: 33 ± 3 nM

Question: What about the IC50 [1, 8] of the same molecule?
Answer: 157 ± 31 nM

Question: And the “bleeding spots on the inner side of stomach samples” value ([6]; 24 hr after PO, 1 g/kg in oil)?
Answer: did not find any bleeding spot

Question: And the “toxic signs in mice” value ([6]; PO, high dose up to 1 g/kg, observation for 14 days)?
Answer: did not cause any toxic sign

Question: What about the “PGE2 levels in mice (kidney)” value ([7]; PO, 5 mg/kg single dose) of the same molecule?
Answer: significantly decreased

Question: What about the “PGE2 levels in mice (kidney)” value ([7]; PO, 10 mg/kg single dose) of the same molecule?
Answer: significantly decreased

Question: And the “PGE2 levels in mice (kidney)” value ([7]; SC, 0.1 mg/kg single dose)?
Answer: significantly decreased

Question: And the “PGE2 levels in mice (kidney)” value ([7]; SC, 1 mg/kg single dose)?
Answer: significantly decreased

Question: What about the “PGE2 levels in mice (kidney)” value ([7]; SC, 10 mg/kg single dose) of the same molecule?
Answer: significantly decreased

Question: And the oral bioavailability ([7]; inferred from PO activity in mice)?
Answer: orally bioavailable
